Test results reported in the NIST ThermoML archive (doi:10.1016/j.fluid.2005.05.012).

Test: xn = mol fraction of the nth substance listed
Conditions: 101.33 kPa, Liquid

CN1CCNCC1 [N-methylpiperazine] + CCCO
Conditions | mass density, 293.15 K [kg/m3] | mass density, 298.15 K [kg/m3] | mass density, 303.15 K [kg/m3] | viscosity, 293.15 K [mPa·s] | viscosity, 298.15 K [mPa·s] | viscosity, 303.15 K [mPa·s]
x2 = 0 | 903.79 | 899.8 | 894.54 | 2.1 | 1.841 | 1.624
x2 = 0.1017 | 899.72 | 895.76 | 890.62 | 2.24 | 1.962 | 1.716
x2 = 0.1987 | 895.17 | 891.23 | 886.21 | 2.369 | 2.058 | 1.809
x2 = 0.3 | 889.62 | 885.71 | 880.86 | 2.536 | 2.2 | 1.932
x2 = 0.4007 | 883.15 | 879.31 | 874.64 | 2.689 | 2.326 | 2.035
x2 = 0.4998 | 875.68 | 871.91 | 867.4 | 2.817 | 2.438 | 2.129
x2 = 0.5504 | 871.35 | 867.6 | 863.18 | 2.863 | 2.478 | 2.167
x2 = 0.6011 | 866.59 | 862.85 | 858.5 | 2.895 | 2.506 | 2.192
x2 = 0.6542 | 861.09 | 857.34 | 853.04 | 2.885 | 2.504 | 2.193
x2 = 0.7001 | 855.83 | 852.05 | 847.8 | 2.874 | 2.497 | 2.186
x2 = 0.7495 | 849.57 | 845.75 | 841.53 | 2.833 | 2.473 | 2.175
x2 = 0.7991 | 842.55 | 838.67 | 834.47 | 2.752 | 2.413 | 2.124
x2 = 0.902 | 825.1 | 821.08 | 816.93 | 2.54 | 2.23 | 1.98

CN1CCNCC1 [N-methylpiperazine] + CCO
Conditions | mass density, 293.15 K [kg/m3] | mass density, 298.15 K [kg/m3] | mass density, 303.15 K [kg/m3] | viscosity, 293.15 K [mPa·s] | viscosity, 298.15 K [mPa·s] | viscosity, 303.15 K [mPa·s]
x2 = 0 | 903.79 | 899.8 | 894.54 | 2.1 | 1.841 | 1.624
x2 = 0.1002 | 900.18 | 896.19 | 891.01 | 2.141 | 1.87 | 1.65
x2 = 0.1994 | 896.41 | 892.42 | 887.31 | 2.206 | 1.924 | 1.694
x2 = 0.3003 | 891.73 | 887.75 | 882.73 | 2.27 | 1.977 | 1.741
x2 = 0.3493 | 889.02 | 885.06 | 880.09 | 2.285 | 1.992 | 1.753
x2 = 0.4021 | 885.73 | 881.8 | 876.89 | 2.301 | 2.009 | 1.771
x2 = 0.451 | 882.31 | 878.41 | 873.55 | 2.288 | 2.001 | 1.764
x2 = 0.5004 | 878.44 | 874.56 | 869.77 | 2.267 | 1.977 | 1.746
x2 = 0.5994 | 869.22 | 865.36 | 860.68 | 2.175 | 1.909 | 1.698
x2 = 0.7011 | 857.04 | 853.14 | 848.58 | 1.996 | 1.772 | 1.595
x2 = 0.8003 | 841.28 | 837.28 | 832.81 | 1.779 | 1.591 | 1.429
x2 = 0.8982 | 820.12 | 815.97 | 811.57 | 1.526 | 1.366 | 1.239

CN1CCNCC1 [N-methylpiperazine] + CO
Conditions | mass density, 293.15 K [kg/m3] | mass density, 298.15 K [kg/m3] | mass density, 303.15 K [kg/m3] | viscosity, 293.15 K [mPa·s] | viscosity, 298.15 K [mPa·s] | viscosity, 303.15 K [mPa·s]
x2 = 0 | 903.8 | 899.8 | 894.52 | 2.1 | 1.841 | 1.624
x2 = 0.1021 | 902.85 | 899.04 | 893.84 | 2.103 | 1.849 | 1.643
x2 = 0.1999 | 901.87 | 898.08 | 892.86 | 2.147 | 1.897 | 1.692
x2 = 0.3286 | 899.35 | 895.54 | 890.39 | 2.167 | 1.924 | 1.722
x2 = 0.4143 | 896.64 | 892.82 | 887.8 | 2.141 | 1.897 | 1.676
x2 = 0.4991 | 892.94 | 889.13 | 884.25 | 2.04 | 1.8 | 1.61
x2 = 0.6016 | 886.48 | 882.68 | 877.91 | 1.875 | 1.654 | 1.475
x2 = 0.6999 | 876.84 | 873 | 868.21 | 1.62 | 1.447 | 1.299
x2 = 0.7998 | 860.91 | 856.96 | 851.99 | 1.306 | 1.169 | 1.06
x2 = 0.8999 | 834.46 | 830.26 | 825.04 | 0.935 | 0.854 | 0.788

CCCCO [butan-1-ol] + CN1CCNCC1
x1 = 1
Conditions | mass density [kg/m3] | viscosity [mPa·s]
293.15 K | 809.97 | 2.938
298.15 K | 806.15 | 2.572
303.15 K | 802.14 | 2.271

CCO [ethanol] + CN1CCNCC1
x1 = 1
Conditions | mass density [kg/m3] | viscosity [mPa·s]
293.15 K | 789.32 | 1.17
298.15 K | 785.06 | 1.078
303.15 K | 780.68 | 0.982

CO [methanol] + CN1CCNCC1
x1 = 1
Conditions | mass density [kg/m3] | viscosity [mPa·s]
293.15 K | 791.09 | 0.593
298.15 K | 786.48 | 0.551
303.15 K | 781.22 | 0.509
